Laboratory results published in PubChem BioAssay (NCI).
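Grown in 96-well plates, cells were treated for 48 hours with each compound at five concentrations. Insufficient inhibition: endpoint recorded as highest concentration tested. TGI: total growth inhibition.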

How the values were obtained:
Experiment in all cases: NCI tumour cell line growth inhibition, 48 h
SW-620 colon = tested on: SW-620 colon
OVCAR-3 ovarian = tested on: OVCAR-3 ovarian
UO-31 renal = tested on: UO-31 renal
HOP-92 NSCLC = tested on: HOP-92 NSCLC
DMS 273 small cell lung = tested on: DMS 273 small cell lung
HOP-18 NSCLC = tested on: HOP-18 NSCLC
MALME-3M melanoma = tested on: MALME-3M melanoma
U251 CNS = tested on: U251 CNS
LXFL 529 NSCLC = tested on: LXFL 529 NSCLC
ACHN renal = tested on: ACHN renal
RXF 393 renal = tested on: RXF 393 renal
HT29 colon = tested on: HT29 colon
NCI-H226 lung = tested on: NCI-H226 lung
OVCAR-5 ovarian = tested on: OVCAR-5 ovarian
IGROV1 ovarian = tested on: IGROV1 ovarian
NCI-H460 lung = tested on: NCI-H460 lung
SR leukemia = tested on: SR leukemia
HCT-116 colon = tested on: HCT-116 colon
SK-OV-3 ovarian = tested on: SK-OV-3 ovarian
SF-268 CNS = tested on: SF-268 CNS
MOLT-4 leukemia = tested on: MOLT-4 leukemia
OVCAR-8 ovarian = tested on: OVCAR-8 ovarian
COLO 205 colon = tested on: COLO 205 colon
A549 NSCLC = tested on: A549 NSCLC
786-0 renal = tested on: 786-0 renal
LOX IMVI melanoma = tested on: LOX IMVI melanoma
HCT-15 colon = tested on: HCT-15 colon
KM20L2 colon = tested on: KM20L2 colon
HCC-2998 colon = tested on: HCC-2998 colon
UACC-257 melanoma = tested on: UACC-257 melanoma
RXF-631 renal = tested on: RXF-631 renal
M19-MEL melanoma = tested on: M19-MEL melanoma
HOP-62 NSCLC = tested on: HOP-62 NSCLC
EKVX NSCLC = tested on: EKVX NSCLC
RPMI-8226 leukemia = tested on: RPMI-8226 leukemia
SF-539 CNS = tested on: SF-539 CNS
TK-10 renal = tested on: TK-10 renal
HL-60(TB) leukemia = tested on: HL-60(TB) leukemia
UACC-62 melanoma = tested on: UACC-62 melanoma
SNB-75 CNS = tested on: SNB-75 CNS
XF 498 CNS = tested on: XF 498 CNS
SK-MEL-28 melanoma = tested on: SK-MEL-28 melanoma
SNB-19 CNS = tested on: SNB-19 CNS
SF-295 CNS = tested on: SF-295 CNS
SN12C renal = tested on: SN12C renal
DLD-1 colon = tested on: DLD-1 colon
NCI-H23 lung = tested on: NCI-H23 lung
CCRF-CEM leukemia = tested on: CCRF-CEM leukemia
DMS 114 small cell lung = tested on: DMS 114 small cell lung
KM12 colon = tested on: KM12 colon
SK-MEL-2 melanoma = tested on: SK-MEL-2 melanoma
SK-MEL-5 melanoma = tested on: SK-MEL-5 melanoma
SNB-78 CNS = tested on: SNB-78 CNS
NCI-H522 lung = tested on: NCI-H522 lung
K-562 leukemia = tested on: K-562 leukemia
A498 renal = tested on: A498 renal

Measured: TGI

Cc1cc2c(=O)c(C)n[nH]c2c(C#N)c1C
not listed: DMS 114 small cell lung | KM12 colon | SK-MEL-2 melanoma | SK-MEL-5 melanoma | SNB-78 CNS | NCI-H522 lung | K-562 leukemia | A498 renal
> 100 µM: all other assays above

Cn1ccc(=NS(=O)(=O)c2ccccc2)cc1
not listed: NCI-H226 lung | SR leukemia | HCT-15 colon | UACC-62 melanoma | SN12C renal
> 100 µM: all other assays above
